Data on 1 compound can be found in patent US10632111B2 (priority 2014, dated 2020).

One may read the Cmax as the maximum level reached in the sampled fluid or tissue. Usually Tmax stands for the time at which the peak concentration occurs.

This series is described as follows: Pharmacokinetic properties in SD rats after intramuscular injection. The conditions noted are these: male SD rats, i.m., 90 mg/kg (based on donepezil), oil solvent, plasma, LC/MS/MS. The text has this: Pharmacokinetic Properties of Compounds of the Present Invention Administered to Rats
In the present embodiment, male SD rats (SPF grade), aged […] and weighing 180 to 220 g, were purchased from Shanghai Slack laboratory Animal Co., Ltd. Throughout the process of the experiment, give the rats free access to food and water.
Adopting grouping of random grouping design, the SD rats for experiments were grouped according to gender and body weight.
The whole blood was collected and placed on ice, followed by centrifugation at 4° C., 8000 rpm and 5 min to collect plasma The plasma was transferred to a 96-well plate and stored at −20° C. until LC-MS/MS examination. Drug concentrations in EDTA (4 mM) anticoagulated plasma of SD rats were determined using LC/MS/MS (Agilent6460). Using WinNonlin 5.2 software, calculate respective relevant pharmacokinetic parameters of each group at each time point after administration according to statistical moment theory.
t1/2 was calculated by the formula t1/2=0.693/λz; λz is an end elimination rate constant derived from the logarithmic concentration—the straight part of the end of time curve, which can be derived from the slope of the logarithmic concentration—the straight part of the end of time curve.

Each structure is given as a SMILES string.

As for `CCCCCCC(=O)OC1=C(CC2CCN(Cc3ccccc3)CC2)Cc2cc(OC)c(OC)cc21` [Compound 3, Donepezil Heptanoate], under “measured value”, the highest concentration (Cmax) was 44.11 ng/mL and the Tmax was determined as 18.00 h. Under “t1/2=0.693/λz”, this compound showed a T1/2 of 314.18 h.
